According to patent publication US12528814B2, “Bifunctional degraders of interleukin-1 receptor-associated kinases and therapeutic use thereof” (NURIX THERAPEUTICS, INC., priority 2020, dated 2026):
Where two headings read alike, the source gives them in different places.

Columns and labels:
IRAK4 [1] = target: T1, IRAK4 (Homo sapiens (Human), UniProt Q9NWZ3); assay: IRAK4 Biochemical HTRF Kinase Assay; conditions: read-out: IRAK4 HTRF biochemical: IC50
Procedure: IRAK4 Biochemical HTRF Kinase Assay
The binding capacities of certain bifunctional compounds of Formula (I) were determined using the CisBio HTRF KinEASE STK S1 Kit (#62ST1PEB, contains 5× Kinase buffer, 1× Detection Buffer, anti-phospho-serine/threonine-cryptate, Streptavidin-XL665, and STK-S1), which measures the phosphorylation of a biotinylated peptide substrate by IRAK4, according to the manufacturer's protocol. […] 2 μl of a reaction solution containing 5 μM STK-S1, 10 mM ATP, and 10 mM MgCl2 were added to each well to a final volume of 10 μl. Assay controls include wells containing kinase with no compound (DMSO only) and wells containing no kinase and no compound (DMSO only). The reactions were allowed to proceed at ambient temperature for 90 minutes. […] The plates were incubated for 60 minutes at ambient temperature and then read on an Envision Multilabel Reader (PerkinElmer). […] For IC50 determination, the compounds were tested at sixteen concentrations in duplicate and curve-fitting was performed by non-linear regression analysis using GraphPad Priam.
Target sequence in this assay (Q9NWZ3 whole entry, species assumed): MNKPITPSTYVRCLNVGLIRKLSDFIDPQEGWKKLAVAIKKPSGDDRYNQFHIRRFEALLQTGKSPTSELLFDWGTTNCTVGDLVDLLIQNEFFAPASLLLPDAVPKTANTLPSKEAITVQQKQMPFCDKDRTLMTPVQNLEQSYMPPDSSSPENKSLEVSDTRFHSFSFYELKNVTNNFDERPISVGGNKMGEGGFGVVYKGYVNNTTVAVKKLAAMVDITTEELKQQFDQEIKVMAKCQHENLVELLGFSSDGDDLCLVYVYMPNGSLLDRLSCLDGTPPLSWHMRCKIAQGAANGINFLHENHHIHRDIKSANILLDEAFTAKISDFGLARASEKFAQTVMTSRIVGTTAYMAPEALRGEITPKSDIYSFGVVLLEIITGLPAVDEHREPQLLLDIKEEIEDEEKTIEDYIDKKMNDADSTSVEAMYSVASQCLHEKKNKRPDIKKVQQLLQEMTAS

IRAK4 [2] = target: T1, IRAK4; assay: IRAK4 Degradation HiBiT Assay; conditions: HiBiT-tagged Jurkat cells, 4 hrs; for Dmax: Jurkat; for DC50: read-out: Cellular IRAK4 HiBiT: DC50
Target sequence in this assay (Q9NWZ3 whole entry): as the sequence (Q9NWZ3 whole entry, species assumed) above

[3] = read-out: Cellular IRAK4 HiBiT: Dmax, Table 5, multiple runs
[4] = read-out: Cellular IRAK4 HiBiT: Dmax, Table 4

Row | Compound | IC50 (IRAK4 [1]; Table 5, multiple runs) | Dmax (IRAK4 [2]; [3]) | DC50 (IRAK4 [2]; Table 5, multiple runs) | IC50 (IRAK4 [1]; Table 4) | Dmax (IRAK4 [2]; [4]) | DC50 (IRAK4 [2]; Table 4)
1 | CNc1cc(-c2ccc3cc(C#N)cnn23)ncc1-c1nnc([C@H]2CC[C@H](NC(=O)C34CC(C(=O)N[C@H](C(=O)N5C[C@H](O)C[C@H]5C(=O)N[C@@H](C)c5ccc(-c6scnc6C)cc5)C(C)(C)C)(C3)C4)CC2)s1 [Example 101, N1-((1r,4S)-4-(5-(6-(3-cyanopyrrolo[1,2-b]pyridazin-7-yl)-4-(methylamino)pyridin-3-yl)-1,3,4-thiadiazol-2-yl)cyclohexyl)-N3-((S)-1-((2S,4R)-4-hydroxy-2-(((S)-1-(4-(4-methylthiazol-5-yl)phenyl)ethyl)carbamoyl)pyrrolidin-1-yl)-3,3-dimethyl-1-oxobutan-2-yl)bicyclo[1.1.1]pentane-1,3-dicarboxamide] | 0.0024 µM | 117% | 0.0422 µM |  |  | 
2 | CNc1cc(-c2ccc3cc(C#N)cnn23)ncc1-c1nnc([C@H]2CC[C@H](N(C)C(=O)C[C@H](NC(=O)[C@@H]3C[C@@H](O)CN3C(=O)[C@@H](NC(=O)C3(F)CC3)C(C)(C)C)c3ccc(-c4scnc4C)cc3)CC2)s1 [Example 163, (2S,4R)—N—((S)-3-(((1r,4S)-4-(5-(6-(3-cyanopyrrolo[1,2-b]pyridazin-7-yl)-4-(methylamino)pyridin-3-yl)-1,3,4-thiadiazol-2-yl)cyclohexyl)(methyl)amino)-1-(4-(4-methylthiazol-5-yl)phenyl)-3-oxopropyl)-1-((S)-2-(1-fluorocyclopropane-1-carboxamido)-3,3-dimethylbutanoyl)-4-hydroxypyrrolidine-2-carboxamide] | 0.001 µM | 113% | 0.0659 µM |  |  | 
3 | Cc1ncsc1-c1ccc(CNC(=O)[C@@H]2C[C@@H](O)CN2C(=O)[C@@H](NC(=O)C2(F)CC2)C(C)(C)C)c(OCCCCCCCC(=O)N2CCN(c3nnc(-c4cnc(-c5ccc6cc(C#N)cnn56)cc4NC(C)C)s3)CC2)c1 [Example 43, (2S,4R)—N-(2-((8-(4-(5-(6-(3-cyanopyrrolo[1,2-b]pyridazin-7-yl)-4-(isopropylamino)pyridin-3-yl)-1,3,4-thiadiazol-2-yl)piperazin-1-yl)-8-oxooctyl)oxy)-4-(4-methylthiazol-5-yl)benzyl)-1-((S)-2-(1-fluorocyclopropane-1-carboxamido)-3,3-dimethylbutanoyl)-4-hydroxypyrrolidine-2-carboxamide] | 0.024 µM | 67% | 1.09 µM | 0.0241 µM | 78% | 1.17 µM
4 | CNc1cc(-c2ccc3cc(C#N)cnn23)ncc1-c1nnc([C@H]2CC[C@H](NC(=O)C[C@H](NC(=O)[C@@H]3C[C@@H](O)CN3C(=O)[C@@H](NC(=O)C3(F)CC3)C(C)(C)C)c3ccc(-c4scnc4C)cc3)CC2)s1 [Example 118, (2S,4R)—N—((S)-3-(((1r,4S)-4-(5-(6-(3-cyanopyrrolo[1,2-b]pyridazin-7-yl)-4-(methylamino)pyridin-3-yl)-1,3,4-thiadiazol-2-yl)cyclohexyl)amino)-1-(4-(4-methylthiazol-5-yl)phenyl)-3-oxopropyl)-1-((S)-2-(1-fluorocyclopropane-1-carboxamido)-3,3-dimethylbutanoyl)-4-hydroxypyrrolidine-2-carboxamide] | 0.0014 µM | 118% | 0.0352 µM |  |  | 
5 | CNc1cc(-c2ccc3cc(C#N)cnn23)ncc1-c1nnc([C@H]2CC[C@H](NC(=O)CCC(=O)N[C@H](C(=O)N3C[C@@H](O)C[C@H]3C(=O)NCc3ccc(-c4scnc4C)cc3)C(C)(C)C)CC2)s1 [Example 151, N1-((1r,4S)-4-(5-(6-(3-cyanopyrrolo[1,2-b]pyridazin-7-yl)-4-(methylamino)pyridin-3-yl)-1,3,4-thiadiazol-2-yl)cyclohexyl)-N4—((S)-1-((2S,4S)-4-hydroxy-2-((4-(4-methylthiazol-5-yl)benzyl)carbamoyl)pyrrolidin-1-yl)-3,3-dimethyl-1-oxobutan-2-yl)succinamide] | 0.0009 µM |  | > 6.98 µM |  |  | 

Continued, values first:

Row | IC50 (IRAK4 [1]; Table 5, multiple runs) | Dmax (IRAK4 [2]; [3]) | DC50 (IRAK4 [2]; Table 5, multiple runs) | IC50 (IRAK4 [1]; Table 4) | Dmax (IRAK4 [2]; [4]) | DC50 (IRAK4 [2]; Table 4) | Compound
6 | 0.0015 µM | 77% | 0.0499 µM |  |  |  | CNc1cc(-c2ccc3cc(C#N)cnn23)ncc1-c1nnc(C23CCC(NC(=O)CN4CCC5(CC4)CN(c4ccc6c(c4)C(=O)N(C4CCC(=O)NC4=O)C6=O)C5)(CC2)CC3)s1 (centres unmarked) [Example 104, N-(4-(5-(6-(3-cyanopyrrolo[1,2-b]pyridazin-7-yl)-4-(methylamino)pyridin-3-yl)-1,3,4-thiadiazol-2-yl)bicyclo[2.2.2]octan-1-yl)-2-(2-(2-(2,6-dioxopiperidin-3-yl)-1,3-dioxoisoindolin-5-yl)-2,7-diazaspiro[3.5]nonan-7-yl)acetamide]
7 | 0.0012 µM | 57% | 0.0707 µM | 0.0003 µM | 57% | 0.0706 µM | CC(C)Nc1cc(-c2ccc3cc(C#N)cnn23)ncc1-c1nnc(N2CCN(CCCc3ccc4c(c3)CN(C3CCC(=O)NC3=O)C4=O)CC2)s1 (centres unmarked) [Example 27, 7-(5-(5-(4-(3-(2-(2,6-dioxopiperidin-3-yl)-1-oxoisoindolin-5-yl)propyl)piperazin-1-yl)-1,3,4-thiadiazol-2-yl)-4-(isopropylamino)pyridin-2-yl)pyrrolo[1,2-b]pyridazine-3-carbonitrile]
8 | 0.0004 µM | 111% | 0.00441 µM |  |  |  | CNc1cc(-c2ccc3cc(C#N)cnn23)ncc1-c1nnc(N2CCN(C3CCN(C(=O)Cc4ccc5c(c4)CN(C4CCC(=O)NC4=O)C5=O)CC3)CC2)s1 (centres unmarked) [Example 100, 7-(5-(5-(4-(1-(2-(2-(2,6-dioxopiperidin-3-yl)-1-oxoisoindolin-5-yl)acetyl)piperidin-4-yl)piperazin-1-yl)-1,3,4-thiadiazol-2-yl)-4-(methylamino)pyridin-2-yl)pyrrolo[1,2-b]pyridazine-3-carbonitrile]
9 | 0.019 µM | 83% | 2.49 µM | 0.019 µM | 67% | 4.33 µM | Cc1ncsc1-c1ccc(CNC(=O)[C@@H]2C[C@@H](O)CN2C(=O)C(NC(=O)[C@H]2CC[C@H](C(=O)N3CCN(c4nnc(-c5cnc(-c6ccc7cc(C#N)cnn67)cc5NC(C)C)s4)CC3)CC2)C(C)(C)C)cc1 (stereo partly drawn) [Example 45, (2S,4R)-1-((S)-2-((1r,4S)-4-(4-(5-(6-(3-cyanopyrrolo[1,2-b]pyridazin-7-yl)-4-(isopropylamino)pyridin-3-yl)-1,3,4-thiadiazol-2-yl)piperazine-1-carbonyl)cyclohexane-1-carboxamido)-3,3-dimethylbutanoyl)-4-hydroxy-N-(4-(4-methylthiazol-5-yl)benzyl)pyrrolidine-2-carboxamide]
10 | 0.0006 µM | 113% | 0.321 µM |  |  |  | CNc1cc(-c2ccc3cc(C#N)cnn23)ncc1-c1nnc(N2CCN(C(=O)CN3CCN(c4ccc5c(c4)C(=O)N(C4CCC(=O)NC4=O)C5=O)CC3)CC2)s1 (centres unmarked) [Example 94, 7-(5-(5-(4-(2-(4-(2-(2,6-dioxopiperidin-3-yl)-1,3-dioxoisoindolin-5-yl)piperazin-1-yl)acetyl)piperazin-1-yl)-1,3,4-thiadiazol-2-yl)-4-(methylamino)pyridin-2-yl)pyrrolo[1,2-b]pyridazine-3-carbonitrile]
11 | 0.0009 µM | 73% | 0.00671 µM | 0.00081 µM | 98% | 0.0126 µM | CNc1cc(-c2ccc3cc(C#N)cnn23)ncc1-c1nnc([C@H]2CC[C@H](NC(=O)[C@H]3C[C@@H](OCCNc4cccc5c4C(=O)N(C4CCC(=O)NC4=O)C5=O)C3)CC2)s1 (stereo partly drawn) [Example 69, (1s,3S)—N-((1r,4R)-4-(5-(6-(3-cyanopyrrolo[1,2-b]pyridazin-7-yl)-4-(methylamino)pyridin-3-yl)-1,3,4-thiadiazol-2-yl)cyclohexyl)-3-(2-((2-(2,6-dioxopiperidin-3-yl)-1,3-dioxoisoindolin-4-yl)amino)ethoxy)cyclobutane-1-carboxamide]
12 | 0.0026 µM | 44% | 0.0997 µM |  |  |  | CNc1cc(-c2ccc3cc(C#N)cnn23)ncc1-c1nnc(C23CCC(NC(=O)CCCCCCCNc4ccc5c(c4)C(=O)N(C4CCC(=O)NC4=O)C5=O)(CC2)CC3)s1 (centres unmarked) [Example 107, N-(4-(5-(6-(3-cyanopyrrolo[1,2-b]pyridazin-7-yl)-4-(methylamino)pyridin-3-yl)-1,3,4-thiadiazol-2-yl)bicyclo[2.2.2]octan-1-yl)-8-((2-(2,6-dioxopiperidin-3-yl)-1,3-dioxoisoindolin-5-yl)amino)octanamide]
13 | 0.0016 µM | 54% | 0.0112 µM |  |  |  | CNc1cc(-c2ccc3cc(C#N)cnn23)ncc1-c1nnc([C@H]2CC[C@H](NC(=O)CCCCCNc3cccc4c3C(=O)N(C3CCC(=O)NC3=O)C4=O)CC2)s1 (some centres unmarked) [Example 66, N-((1r,4r)-4-(5-(6-(3-cyanopyrrolo[1,2-b]pyridazin-7-yl)-4-(methylamino)pyridin-3-yl)-1,3,4-thiadiazol-2-yl)cyclohexyl)-6-((2-(2,6-dioxopiperidin-3-yl)-1,3-dioxoisoindolin-4-yl)amino)hexanamide]
